Laboratory results taken from patent US11000033B2, “Ketone or oxime compound, and herbicide” (NISSAN CHEMICAL CORPORATION, priority 2014, dated 2021).

Experiments:
Type in all cases: in vivo
Lolium multiflorum Lam. = assay: Test Example 5: herbicidal effect by foliage application, plastic box (symbol K); conditions: 320 g/ha, 3 weeks after application
In short: (§1)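 Emulsion formulation, diluted with water to the intended rate, was applied uniformly to leaves by small sprayer. Recipients were 14-day greenhouse-grown seedlings (25° C. to 30° C.). Assessment followed at 3 weeks.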

Scirpus juncoides = assay: Test Example 2: herbicidal activity, application during weed generation in submerged conditions (symbol B); conditions: Table 23; application herbicide amount 320 g/ha; grade 0-5 by criteria of Test Example 1
In short: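 Scoring of herbicidal effect took place 3 weeks after treatment, using the criteria of the earlier test. Treatment was water-surface application of diluted emulsifiable compound at a set dose. Plants were at one- to two-leaf stage in submerged alluvial soil (4 cm depth), greenhouse 25-30° C.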

Galium spurium = assay: Test Example 5: herbicidal effect by foliage application, plastic box (symbol Q); conditions: 320 g/ha, 3 weeks after application
In short: as §1

corn = assay: Test Example 5: effect on crop by foliage application, plastic box (symbol c); conditions: 320 g/ha, 3 weeks after application
In short: (§2)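 Greenhouse test at 25° C. to 30° C. Seeds of crops and weeds were spot-sown in boxes of sterilized diluvial soil under roughly 1.5 cm soil cover, then grown for foliage treatment.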

Avena fatua = assay: Test Example 4: herbicidal effect by soil treatment (symbol I); conditions: 320 g/ha
In short: (§3)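 Seeds were sown in sterilized diluvial soil, covered with about 1.5 cm of soil, and the soil surface was sprayed with a water-diluted emulsion of the compound at a predetermined rate. Plants grew in a greenhouse at 25° C. to 30° C.; effects were scored visually 3 weeks after application.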

wheat [1] = assay: Test Example 5: effect on crop by foliage application, plastic box (symbol e); conditions: 320 g/ha, 3 weeks after application
In short: as §2

Alopecurus myosuroides [2] = assay: Test Example 4: herbicidal effect by soil treatment (symbol J); conditions: 320 g/ha
In short: as §3

Veronica persica = assay: Test Example 4: herbicidal effect by soil treatment (symbol R); conditions: 320 g/ha
In short: as §3

transplanted rice plant = assay: Test Example 1: effect on crop, application before weed generation in submerged conditions (symbol a); conditions: application herbicide amount 320 g/ha
In short: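 Rice at 2.5 leaf stage transplanted into submerged soil (4 cm depth) sown with three weed species; herbicide applied before weed emergence.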

soybean = assay: Test Example 5: effect on crop by foliage application, plastic box (symbol d); conditions: 320 g/ha, 3 weeks after application
In short: as §2

Alopecurus myosuroides [3] = assay: Test Example 5: herbicidal effect by foliage application, plastic box (symbol J); conditions: 320 g/ha, 3 weeks after application
In short: as §1

wheat [4] = assay: Test Example 4: effect on crop by soil treatment (symbol e); conditions: 320 g/ha
In short: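 Sterilized diluvial soil, spot sowing, ~1.5 cm soil cover; greenhouse 25–30° C.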

Leptochloa chinensis = assay: Test Example 3: herbicidal effect by foliage application, Wagner pot (symbol D); conditions: application herbicide amount 320 g/ha
In short: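 Foliar spray of a water-diluted emulsion at a predetermined herbicide amount, applied to 14-day-old plants. Seedlings were raised in flooded alluvial soil (0.1–0.5 cm water) at 25–30 °C in a greenhouse. Injury was rated after 3 weeks against fixed criteria.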

Digitaria ciliaris = assay: Test Example 5: herbicidal effect by foliage application, plastic box (symbol F); conditions: 320 g/ha, 3 weeks after application
In short: as §1

## COC(=O)c1ccc(CON=C(C)CC2CC(O)=C(c3c(C)cc(C)cc3C)C2=O)cc1 (stereo not drawn) [1-118]
Lolium multiflorum Lam.
  K: Lolium multiflorum Lam., herbicidal effect (criteria 0-5): 5 (Herbicidal ratio of 90% or more (almost completely withered))
Scirpus juncoides
  Herbicidal effect grade, B: Scirpus juncoides: 0 (Herbicidal ratio of 5% or lower (almost no effect))
Galium spurium
  Q: Galium spurium, herbicidal effect (criteria 0-5): 3 (Herbicidal ratio of 40% or higher and lower than 70%)
corn
  c: corn, effect on crop (criteria 0-5): 4 (Herbicidal ratio of 70% or higher and lower than 90%)
Avena fatua
  I: Avena fatua, herbicidal effect grade: 0 (Herbicidal ratio of 5% or lower (almost no effect))
Wheat [1]
  e: wheat, effect on crop (criteria 0-5): 0 (Herbicidal ratio of 5% or lower (almost no effect))
Alopecurus myosuroides [2]
  J: Alopecurus myosuroides, herbicidal effect grade: 3 (Herbicidal ratio of 40% or higher and lower than 70%)
Veronica persica
  R: Veronica persica, herbicidal effect grade: 0 (Herbicidal ratio of 5% or lower (almost no effect))
Transplanted rice plant
  Effect grade on crop, a: transplanted rice plant: 4 (Herbicidal ratio of 70% or higher and lower than 90%)
soybean
  d: soybean, effect on crop (criteria 0-5): 0 (Herbicidal ratio of 5% or lower (almost no effect))
Alopecurus myosuroides [3]
  J: Alopecurus myosuroides, herbicidal effect (criteria 0-5): 4 (Herbicidal ratio of 70% or higher and lower than 90%)
Wheat [4]
  e: wheat, effect grade on crop: 0 (Herbicidal ratio of 5% or lower (almost no effect))
Leptochloa chinensis
  herbicidal effect on D (Leptochloa chinensis), grade 0-5: 0 (Herbicidal ratio of 5% or lower (almost no effect))
Digitaria ciliaris
  F: Digitaria ciliaris, herbicidal effect (criteria 0-5): 0 (Herbicidal ratio of 5% or lower (almost no effect))

## CC(CC1CC(O)=C(c2c(C)cc(C)cc2C)C1=O)=NOCC(C)Cl (stereo not drawn) [1-121]
Lolium multiflorum Lam.
  K: Lolium multiflorum Lam., herbicidal effect (criteria 0-5): 5 (Herbicidal ratio of 90% or more (almost completely withered))
Scirpus juncoides
  Herbicidal effect grade, B: Scirpus juncoides: 4 (Herbicidal ratio of 70% or higher and lower than 90%)
Galium spurium
  Q: Galium spurium, herbicidal effect (criteria 0-5): 0 (Herbicidal ratio of 5% or lower (almost no effect))
corn
  c: corn, effect on crop (criteria 0-5): 5 (Herbicidal ratio of 90% or more (almost completely withered))
Avena fatua
  I: Avena fatua, herbicidal effect grade: 1 (Herbicidal ratio of 5% or higher and lower than 20%)
Wheat [1]
  e: wheat, effect on crop (criteria 0-5): 3 (Herbicidal ratio of 40% or higher and lower than 70%)
Alopecurus myosuroides [2]
  J: Alopecurus myosuroides, herbicidal effect grade: 5 (Herbicidal ratio of 90% or more (almost completely withered))
Veronica persica
  R: Veronica persica, herbicidal effect grade: 0 (Herbicidal ratio of 5% or lower (almost no effect))
Transplanted rice plant
  Effect grade on crop, a: transplanted rice plant: 5 (Herbicidal ratio of 90% or more (almost completely withered))
soybean
  d: soybean, effect on crop (criteria 0-5): 2 (Herbicidal ratio of 20% or higher and lower than 40%)
Alopecurus myosuroides [3]
  J: Alopecurus myosuroides, herbicidal effect (criteria 0-5): 5 (Herbicidal ratio of 90% or more (almost completely withered))
Wheat [4]
  e: wheat, effect grade on crop: 0 (Herbicidal ratio of 5% or lower (almost no effect))
Leptochloa chinensis
  herbicidal effect on D (Leptochloa chinensis), grade 0-5: 5 (Herbicidal ratio of 90% or more (almost completely withered))
Digitaria ciliaris
  F: Digitaria ciliaris, herbicidal effect (criteria 0-5): 5 (Herbicidal ratio of 90% or more (almost completely withered))

## CON=C(C)CC1CC(OS(=O)(=O)N(C)C)=C(c2c(C)cc(C)cc2C)C1=O (stereo not drawn) [1-122]
Lolium multiflorum Lam.
  K: Lolium multiflorum Lam., herbicidal effect (criteria 0-5): 5 (Herbicidal ratio of 90% or more (almost completely withered))
Scirpus juncoides
  Herbicidal effect grade, B: Scirpus juncoides: 5 (Herbicidal ratio of 90% or more (almost completely withered))
Galium spurium
  Q: Galium spurium, herbicidal effect (criteria 0-5): 0 (Herbicidal ratio of 5% or lower (almost no effect))
corn
  c: corn, effect on crop (criteria 0-5): 5 (Herbicidal ratio of 90% or more (almost completely withered))
Avena fatua
  I: Avena fatua, herbicidal effect grade: 2 (Herbicidal ratio of 20% or higher and lower than 40%)
Wheat [1]
  e: wheat, effect on crop (criteria 0-5): 4 (Herbicidal ratio of 70% or higher and lower than 90%)
Alopecurus myosuroides [2]
  J: Alopecurus myosuroides, herbicidal effect grade: 5 (Herbicidal ratio of 90% or more (almost completely withered))
Veronica persica
  R: Veronica persica, herbicidal effect grade: 0 (Herbicidal ratio of 5% or lower (almost no effect))
Transplanted rice plant
  Effect grade on crop, a: transplanted rice plant: 5 (Herbicidal ratio of 90% or more (almost completely withered))
soybean
  d: soybean, effect on crop (criteria 0-5): 4 (Herbicidal ratio of 70% or higher and lower than 90%)
Alopecurus myosuroides [3]
  J: Alopecurus myosuroides, herbicidal effect (criteria 0-5): 5 (Herbicidal ratio of 90% or more (almost completely withered))
Wheat [4]
  e: wheat, effect grade on crop: 0 (Herbicidal ratio of 5% or lower (almost no effect))
Leptochloa chinensis
  herbicidal effect on D (Leptochloa chinensis), grade 0-5: 5 (Herbicidal ratio of 90% or more (almost completely withered))
Digitaria ciliaris
  F: Digitaria ciliaris, herbicidal effect (criteria 0-5): 4 (Herbicidal ratio of 70% or higher and lower than 90%)

## CCCON=C(C)CC1CC(O)=C(c2c(C)cc(C)cc2C)C1=O (stereo not drawn) [1-123]
Lolium multiflorum Lam.
  K: Lolium multiflorum Lam., herbicidal effect (criteria 0-5): 5 (Herbicidal ratio of 90% or more (almost completely withered))
Scirpus juncoides
  Herbicidal effect grade, B: Scirpus juncoides: 3 (Herbicidal ratio of 40% or higher and lower than 70%)
Galium spurium
  Q: Galium spurium, herbicidal effect (criteria 0-5): 0 (Herbicidal ratio of 5% or lower (almost no effect))
corn
  c: corn, effect on crop (criteria 0-5): 5 (Herbicidal ratio of 90% or more (almost completely withered))
Avena fatua
  I: Avena fatua, herbicidal effect grade: 4 (Herbicidal ratio of 70% or higher and lower than 90%)
Wheat [1]
  e: wheat, effect on crop (criteria 0-5): 5 (Herbicidal ratio of 90% or more (almost completely withered))
Alopecurus myosuroides [2]
  J: Alopecurus myosuroides, herbicidal effect grade: 5 (Herbicidal ratio of 90% or more (almost completely withered))
Veronica persica
  R: Veronica persica, herbicidal effect grade: 0 (Herbicidal ratio of 5% or lower (almost no effect))
Transplanted rice plant
  Effect grade on crop, a: transplanted rice plant: 5 (Herbicidal ratio of 90% or more (almost completely withered))
soybean
  d: soybean, effect on crop (criteria 0-5): 2 (Herbicidal ratio of 20% or higher and lower than 40%)
Alopecurus myosuroides [3]
  J: Alopecurus myosuroides, herbicidal effect (criteria 0-5): 5 (Herbicidal ratio of 90% or more (almost completely withered))
Wheat [4]
  e: wheat, effect grade on crop: 0 (Herbicidal ratio of 5% or lower (almost no effect))
Leptochloa chinensis
  herbicidal effect on D (Leptochloa chinensis), grade 0-5: 5 (Herbicidal ratio of 90% or more (almost completely withered))
Digitaria ciliaris
  F: Digitaria ciliaris, herbicidal effect (criteria 0-5): 5 (Herbicidal ratio of 90% or more (almost completely withered))

## CC(CC1CC(O)=C(c2c(C)cc(C)cc2C)C1=O)=NOCC(N)=O (stereo not drawn) [1-124]
Lolium multiflorum Lam.
  K: Lolium multiflorum Lam., herbicidal effect (criteria 0-5): 4 (Herbicidal ratio of 70% or higher and lower than 90%)
Scirpus juncoides
  Herbicidal effect grade, B: Scirpus juncoides: 0 (Herbicidal ratio of 5% or lower (almost no effect))
Galium spurium
  Q: Galium spurium, herbicidal effect (criteria 0-5): 0 (Herbicidal ratio of 5% or lower (almost no effect))
corn
  c: corn, effect on crop (criteria 0-5): 4 (Herbicidal ratio of 70% or higher and lower than 90%)
Avena fatua
  I: Avena fatua, herbicidal effect grade: 0 (Herbicidal ratio of 5% or lower (almost no effect))
Wheat [1]
  e: wheat, effect on crop (criteria 0-5): 3 (Herbicidal ratio of 40% or higher and lower than 70%)
Alopecurus myosuroides [2]
  J: Alopecurus myosuroides, herbicidal effect grade: 2 (Herbicidal ratio of 20% or higher and lower than 40%)
Veronica persica
  R: Veronica persica, herbicidal effect grade: 0 (Herbicidal ratio of 5% or lower (almost no effect))
Transplanted rice plant
  Effect grade on crop, a: transplanted rice plant: 0 (Herbicidal ratio of 5% or lower (almost no effect))
soybean
  d: soybean, effect on crop (criteria 0-5): 0 (Herbicidal ratio of 5% or lower (almost no effect))
Alopecurus myosuroides [3]
  J: Alopecurus myosuroides, herbicidal effect (criteria 0-5): 3 (Herbicidal ratio of 40% or higher and lower than 70%)
Wheat [4]
  e: wheat, effect grade on crop: 0 (Herbicidal ratio of 5% or lower (almost no effect))
Leptochloa chinensis
  herbicidal effect on D (Leptochloa chinensis), grade 0-5: 5 (Herbicidal ratio of 90% or more (almost completely withered))
Digitaria ciliaris
  F: Digitaria ciliaris, herbicidal effect (criteria 0-5): 0 (Herbicidal ratio of 5% or lower (almost no effect))

## CC(CC1CC(O)=C(c2c(C)cc(C)cc2C)C1=O)=NOCC[S+](C)[O-] (stereo not drawn) [1-125]
Lolium multiflorum Lam.
  K: Lolium multiflorum Lam., herbicidal effect (criteria 0-5): 5 (Herbicidal ratio of 90% or more (almost completely withered))
Scirpus juncoides
  Herbicidal effect grade, B: Scirpus juncoides: 0 (Herbicidal ratio of 5% or lower (almost no effect))
Galium spurium
  Q: Galium spurium, herbicidal effect (criteria 0-5): 3 (Herbicidal ratio of 40% or higher and lower than 70%)
corn
  c: corn, effect on crop (criteria 0-5): 3 (Herbicidal ratio of 40% or higher and lower than 70%)
Avena fatua
  I: Avena fatua, herbicidal effect grade: 3 (Herbicidal ratio of 40% or higher and lower than 70%)
Wheat [1]
  e: wheat, effect on crop (criteria 0-5): 5 (Herbicidal ratio of 90% or more (almost completely withered))
Alopecurus myosuroides [2]
  J: Alopecurus myosuroides, herbicidal effect grade: 0 (Herbicidal ratio of 5% or lower (almost no effect))
Veronica persica
  R: Veronica persica, herbicidal effect grade: 0 (Herbicidal ratio of 5% or lower (almost no effect))
Transplanted rice plant
  Effect grade on crop, a: transplanted rice plant: 5 (Herbicidal ratio of 90% or more (almost completely withered))
soybean
  d: soybean, effect on crop (criteria 0-5): 0 (Herbicidal ratio of 5% or lower (almost no effect))
Alopecurus myosuroides [3]
  J: Alopecurus myosuroides, herbicidal effect (criteria 0-5): 5 (Herbicidal ratio of 90% or more (almost completely withered))
Wheat [4]
  e: wheat, effect grade on crop: 3 (Herbicidal ratio of 40% or higher and lower than 70%)
Leptochloa chinensis
  herbicidal effect on D (Leptochloa chinensis), grade 0-5: 5 (Herbicidal ratio of 90% or more (almost completely withered))
Digitaria ciliaris
  F: Digitaria ciliaris, herbicidal effect (criteria 0-5): 5 (Herbicidal ratio of 90% or more (almost completely withered))
